This is an account of results in patent US8969395B2, “Triterpenoid derivatives useful as antiproliferative agents” (Universidade de Coimbra, priority 2009, dated 2015).

Type in all cases: cell-based
Holding throughout (settings): mean ±SD

Test [1] concerns LAPC4 (human prostate adenocarcinoma). Kind of test: Cytotoxic activity, LAPC4. As to the method:
(§1) Compounds presented in Table 6 were also tested in the following cell lines: PC-3 (human prostate adenocarcinoma), LNCaP (human prostate adenocarcinoma), LAPC4 (human prostate adenocarcinoma) and HT-29 (human colon adenocarcinoma).

Test [2] relates to LNCaP (human prostate adenocarcinoma). Briefly: Cytotoxic activity, LNCaP. How it is done: as §1
The subject of test [3] is PC-3 (human prostate adenocarcinoma). Kind of test: Cytotoxic activity, PC-3. As to the method: as §1

Regarding `C=C(C)[C@@H]1CC[C@]2(CO)CC[C@]3(C)[C@H](CC[C@@H]4[C@@]5(C)CC[C@H](OC(=O)n6ccnc6)C(C)(C)[C@@H]5CC[C@]43C)[C@@H]12` [Compound 20, 28-hydroxy-lup-20(29)-en-3β-yl-1H-imidazole-1-carboxylate], the IC50 (as a rule, the concentration needed to halve the response being measured) was determined as 16.4 ± 2.1 µM in test [1], 15 ± 1.8 µM in test [2] and 9.2 ± 0.7 µM in test [3].

As for `C=C(C)[C@@H]1CC[C@]2(C(=O)n3ccnc3)CC[C@]3(C)[C@H](CC[C@@H]4[C@@]5(C)CCC(=O)C(C)(C)[C@@H]5CC[C@]43C)[C@@H]12` [Compound 44, 28-(1H-imidazol-1-yl)-lup-20(29)-en-3,28-dione], the IC50 came to 17.2 ± 2.3 µM in test [1], 13.7 ± 0.5 µM in test [2] and 6.9 ± 1.1 µM in test [3].
